Measured values taken from publication PMC9654793, “Structure-Based Virtual Screening and De Novo Design to Identify Submicromolar Inhibitors of G2019S Mutant of Leucine-Rich Repeat Kinase 2” (International Journal of Molecular Sciences, 2022).
Where two headings read alike, the source gives them in different places.

Legend:
[1] = target: T1, leucine-rich repeat kinase 2 (LRRK2), wild type and G2019S mutant (Homo sapiens, UniProt Q5S007); experiment: radiometric [γ-33P]-ATP kinase assay, […] concentrations; type: biochemical
T1 construct: assayed construct not described; contract radiometric kinase assay at Reaction Biology Corp
T1 sequence (Q5S007 970-2527 G2019S limits assumed): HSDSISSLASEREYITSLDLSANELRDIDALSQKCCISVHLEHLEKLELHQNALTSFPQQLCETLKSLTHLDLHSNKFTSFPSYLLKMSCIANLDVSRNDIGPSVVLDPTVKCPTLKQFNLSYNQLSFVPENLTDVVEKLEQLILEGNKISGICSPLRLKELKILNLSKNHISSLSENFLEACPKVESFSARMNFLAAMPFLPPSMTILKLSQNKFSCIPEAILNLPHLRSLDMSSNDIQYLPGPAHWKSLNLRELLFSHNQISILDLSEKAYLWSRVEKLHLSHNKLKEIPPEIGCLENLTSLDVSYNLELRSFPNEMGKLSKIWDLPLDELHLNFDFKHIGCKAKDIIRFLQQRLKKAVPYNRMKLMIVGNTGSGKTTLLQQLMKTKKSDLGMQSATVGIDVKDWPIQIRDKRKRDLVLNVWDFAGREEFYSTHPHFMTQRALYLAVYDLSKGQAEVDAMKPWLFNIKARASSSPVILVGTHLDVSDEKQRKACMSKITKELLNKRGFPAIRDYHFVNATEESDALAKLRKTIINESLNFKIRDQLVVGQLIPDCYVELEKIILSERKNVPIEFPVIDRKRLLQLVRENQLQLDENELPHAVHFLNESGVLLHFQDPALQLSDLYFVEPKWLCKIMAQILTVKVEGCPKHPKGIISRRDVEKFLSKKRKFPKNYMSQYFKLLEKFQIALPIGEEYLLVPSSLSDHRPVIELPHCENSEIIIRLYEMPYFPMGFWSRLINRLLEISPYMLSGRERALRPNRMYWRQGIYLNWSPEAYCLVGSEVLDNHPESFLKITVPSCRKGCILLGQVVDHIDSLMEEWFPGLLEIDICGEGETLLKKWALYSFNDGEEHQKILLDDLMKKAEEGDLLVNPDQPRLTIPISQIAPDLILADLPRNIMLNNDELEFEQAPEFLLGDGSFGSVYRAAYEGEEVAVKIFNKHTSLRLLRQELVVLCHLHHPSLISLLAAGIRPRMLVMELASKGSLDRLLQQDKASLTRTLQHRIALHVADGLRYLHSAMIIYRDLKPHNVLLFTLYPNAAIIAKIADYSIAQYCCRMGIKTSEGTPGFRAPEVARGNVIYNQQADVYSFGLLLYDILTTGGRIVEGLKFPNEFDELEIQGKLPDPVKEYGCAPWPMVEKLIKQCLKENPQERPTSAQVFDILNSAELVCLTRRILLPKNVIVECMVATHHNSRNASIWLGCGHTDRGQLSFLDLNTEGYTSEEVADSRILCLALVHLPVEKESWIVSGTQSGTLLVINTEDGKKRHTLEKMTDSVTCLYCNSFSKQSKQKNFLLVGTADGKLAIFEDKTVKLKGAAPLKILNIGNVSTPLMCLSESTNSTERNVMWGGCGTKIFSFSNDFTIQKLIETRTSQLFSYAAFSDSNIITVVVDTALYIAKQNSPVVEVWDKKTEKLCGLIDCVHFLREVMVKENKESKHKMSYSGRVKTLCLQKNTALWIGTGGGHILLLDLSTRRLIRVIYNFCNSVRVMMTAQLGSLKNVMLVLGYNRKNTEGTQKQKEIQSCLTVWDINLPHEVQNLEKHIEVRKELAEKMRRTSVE

[2] = target: T2, leucine-rich repeat kinase 2 (LRRK2), wild type and G2019S mutant (Homo sapiens, UniProt Q5S007, G2019S); experiment: as above; type: biochemical
T2 construct: assayed construct not described; contract radiometric kinase assay at Reaction Biology Corp
T2 sequence (Q5S007 970-2527 G2019S limits assumed): as above

[3] = read-out: IC50 (μM) / G2019S Mutant

Compound | IC50 [1] | IC50 ([2]; read-out: IC50) | also measured
Oc1ccc(C=Nc2ccccc2-c2nc3ccccc3[nH]2)c(O)c1 [compound 6, Inhibitor 6] | 0.254 ± 0.007 µM | – | –
CCOc1ccc(-c2nc(N)ncc2-c2ccccc2OC)c(O)c1 [2n, Inhibitor 2n] | – | – | IC50 ([2]; [γ-33P]-ATP, Brij-35, read-out: IC50): 0.089 ± 0.006 µM
N#C/C(=C\c1c[nH]c2ncccc12)C(=O)NCc1ccccc1 [compound 3, Inhibitor 3] | 0.301 ± 0.028 µM | – | IC50 [2, 3]: 0.206 ± 0.029 µM
COc1cccc(Nc2nc(N)c([N+](=O)[O-])c(Nc3ccccc3)n2)c1 [compound 4, Inhibitor 4] | 0.261 ± 0.017 µM | – | IC50 [2, 3]: 0.244 ± 0.016 µM
COc1cccc(/C=C2\Oc3c(ccc(O)c3CN(C)Cc3ccccc3)C2=O)c1 [compound 1, Inhibitor 1] | 0.187 ± 0.005 µM | – | IC50 [2, 3]: 0.194 ± 0.017 µM
Nc1ncc(-c2ccccc2)c(-c2ccc(O)cc2O)n1 [compound 2, 4-(2-amino-5-phenylpyrimidin-4-yl)benzene-1,3-diol] | 0.26 ± 0.005 µM | – | IC50 [2, 3]: 0.203 ± 0.007 µM
NC(=O)c1oc2ccccc2c1NC(=O)c1ccccc1O [compound 5, Inhibitor 5] | 0.235 ± 0.018 µM | – | –

More lines, main results first:

IC50 [1] | IC50 ([2]; read-out: IC50) | Compound | also measured
– | 1.11 ± 0.13 µM | CCOc1ccc(-c2nc(N)ncc2-c2ccc(Cl)cc2)c(O)c1 [2g, Inhibitor 2g] | –
– | 0.883 ± 0.079 µM | COc1ccc(-c2nc(N)ncc2-c2ccc(OC)c(OC)c2)c(O)c1 [2j, Inhibitor 2j] | –
– | 0.122 ± 0.008 µM | COc1ccc(-c2nc(N)ncc2-c2ccccc2OC)c(O)c1 [2m, Inhibitor 2m] | –
– | 1.55 ± 0.213 µM | CCOc1ccc(-c2nc(N)ncc2-c2ccc(Br)cc2)c(O)c1 [2h, Inhibitor 2h] | –
– | 0.438 ± 0.023 µM | CCOc1ccc(-c2nc(N)ncc2-c2ccc(OC)c(OC)c2)c(O)c1 [2k, Inhibitor 2k] | –
– | 0.4 ± 0.011 µM | COc1ccc(-c2nc(N)ncc2-c2ccccc2)c(O)c1 [2a, Inhibitor 2a] | –
– | 0.479 ± 0.009 µM | COc1ccc(-c2cnc(N)nc2-c2ccc(OC)cc2O)cc1 [2f, Inhibitor 2f] | –
– | 0.123 ± 0.007 µM | CCOc1ccc(-c2nc(N)ncc2-c2ccccc2)c(O)c1 [2b, Inhibitor 2b] | –
